Values after ≈ are worked out from the molar mass of the structure shown. Read-outs that look alike come from different tables or passages of the source. Bridge positions count the residues as written; N and C are the ends. Square brackets hold non-standard residues; d marks the D form. Peptide text beside a SMILES is read from it. * marks the point of attachment. X14 = CC(C)c1ccc(CO[C@@H](CCN)C(=O)*)cc1; dCha = N[C@H](CC1CCCCC1)C(=O)O; X15 = NCCC(CC1CCCC1)C(=O)*; Dab = NCC[C@H](N)C(=O)O; Dap = NC[C@H](N)C(=O)O
How the values were obtained:
Assay type in all cases: cell-based
[1] = system: Pseudomonas aeruginosa
How it was run: (§1)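 Values are minimum inhibitory concentrations, reported in μg/mL. Compounds were tested for susceptibility against up to nine strains per organism, including resistant isolates.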

[2] = system: Escherichia coli
How it was run: as §1

[3] = system: Klebsiella pneumoniae
How it was run: as §1

[4] = system: Acinetobacter baumannii
How it was run: as §1

MIC P. aeruginosa 068 [1]	MIC P. aeruginosa 070 [1]	MIC P. aeruginosa ATCC 27853 [1]	MIC P. aeruginosa CCUG 59347 [1]	MIC E. coli 058 [2]	MIC E. coli 061 [2]	MIC E. coli ATCC 25922 [2]	MIC E. coli NCTC 9001 [2]	MIC K. pneumoniae 063 [3]	MIC K. pneumoniae 065 [3]	MIC K. pneumoniae ATCC 13882 [3]	MIC A. baumanii 053 [4]	MIC A. baumanii 056 [4]	MIC A. baumanii ATCC BAA-747 [4]	MIC A. baumanii NCTC 13424 [4]	SMILES	further results
4 µg/mL (≈ 3.37 µM)	4 µg/mL (≈ 3.37 µM)	0.25 µg/mL (≈ 0.21 µM)	0.5 µg/mL (≈ 0.421 µM)	2 µg/mL (≈ 1.68 µM)	16 µg/mL (≈ 13.5 µM)	0.25 µg/mL (≈ 0.21 µM)	0.25 µg/mL (≈ 0.21 µM)	64 µg/mL (≈ 53.9 µM)	0.5 µg/mL (≈ 0.421 µM)	0.25 µg/mL (≈ 0.21 µM)	64 µg/mL (≈ 53.9 µM)	32 µg/mL (≈ 26.9 µM)	0.25 µg/mL (≈ 0.21 µM)	0.125 µg/mL (≈ 0.105 µM)	CC(C)C[C@@H]1NC(=O)[C@@H](CC2CCCCC2)NC(=O)[C@H](CCN)NC(=O)[C@@H](NC(=O)[C@H](CN)NC(=O)[C@@H](NC(=O)[C@H](CCN)OCc2ccc(C(C)C)cc2)[C@@H](C)O)CCNC(=O)[C@H]([C@@H](C)O)NC(=O)[C@H](CCN)NC(=O)[C@H](CCN)NC1=O [Example 88, (S)-4-amino-2-((4-isopropylbenzyl)oxy)butanoyl L-Thr-L-Dap-polymyxin [D-cyclohexylalanine-6]heptapeptide] (X14-T[Dap][Dab][Dab][dCha]L[Dab][Dab]T; lactam 3-C)	
															CC(C)C[C@@H]1NC(=O)[C@@H](CC2CCCCC2)NC(=O)[C@H](CCN)NC(=O)[C@@H](NC(=O)[C@H](CN)NC(=O)[C@@H](NC(=O)CC(CN)C2CCCCC2)C(C)O)CCNC(=O)[C@H]([C@@H](C)O)NC(=O)[C@H](CCN)NC(=O)[C@H](CCN)NC1=O (single isomer, unassigned; isomer 2) [Example 43, 4-amino-3-cyclohexylbutanoyl L-Thr-L-Dap-polymyxin [D-cyclohexylalanine]-6 heptapeptide. isomer 2]	MIC P. aeruginosa 068 ([1]; strain 068): 2 µg/mL (≈ 1.78 µM); MIC P. aeruginosa 070 ([1]; strain 070): 2 µg/mL (≈ 1.78 µM); MIC P. aeruginosa ATCC 27853 ([1]; strain ATCC 27853): 0.25 µg/mL (≈ 0.223 µM); MIC P. aeruginosa CCUG 59347 ([1]; strain CCUG 59347): 0.25 µg/mL (≈ 0.223 µM); MIC E. coli 058 ([2]; strain 058): 1 µg/mL (≈ 0.891 µM); MIC E. coli 061 ([2]; strain 061): 8 µg/mL (≈ 7.13 µM); MIC E. coli ATCC 25922 ([2]; strain ATCC 25922): 0.25 µg/mL (≈ 0.223 µM); MIC E. coli NCTC 9001 ([2]; strain NCTC 9001): 0.06 µg/mL (≈ 0.0535 µM); MIC K. pneumoniae 063 ([3]; strain 063): 16 µg/mL (≈ 14.3 µM); MIC K. pneumoniae 065 ([3]; strain 065): 0.5 µg/mL (≈ 0.445 µM); MIC K. pneumoniae ATCC 13882 ([3]; strain ATCC 13882): 0.25 µg/mL (≈ 0.223 µM); MIC A. baumanii 053 ([4]; strain 053): 64 µg/mL (≈ 57 µM); MIC A. baumanii 056 ([4]; strain 056): 32 µg/mL (≈ 28.5 µM); MIC A. baumanii ATCC BAA-747 ([4]; strain ATCC BAA-747): 0.125 µg/mL (≈ 0.111 µM); MIC A. baumanii NCTC 13424 ([4]; strain NCTC 13424): 0.25 µg/mL (≈ 0.223 µM)
2 µg/mL (≈ 1.76 µM)	8 µg/mL (≈ 7.04 µM)	0.25 µg/mL (≈ 0.22 µM)	0.25 µg/mL (≈ 0.22 µM)	4 µg/mL (≈ 3.52 µM)	16 µg/mL (≈ 14.1 µM)	0.5 µg/mL (≈ 0.44 µM)	0.06 µg/mL (≈ 0.0528 µM)	16 µg/mL (≈ 14.1 µM)	1 µg/mL (≈ 0.88 µM)	0.25 µg/mL (≈ 0.22 µM)	>64 µg/mL	64 µg/mL (≈ 56.3 µM)	0.125 µg/mL (≈ 0.11 µM)	0.06 µg/mL (≈ 0.0528 µM)	CC(C)C[C@@H]1NC(=O)[C@@H](CC2CCCCC2)NC(=O)[C@H](CCN)NC(=O)[C@@H](NC(=O)[C@H](CCN)NC(=O)[C@@H](NC(=O)C(CCN)CC2CCCC2)[C@@H](C)O)CCNC(=O)[C@H]([C@@H](C)O)NC(=O)[C@H](CCN)NC(=O)[C@H](CCN)NC1=O (stereo partly drawn) [Example 83, 4-amino-2-(cyclopentylmethyl) butanoyl polymyxin [D-cyclohexylalanine-6]nonapeptide] (X15-T[Dab][Dab][Dab][dCha]L[Dab][Dab]T; lactam 3-C)	
